Legend:
Test in all cases: cells
Format in all cases: cell-based
[1] = tested on: A498; conditions: A498 (Renal Cancer), 10 μM, 48 hours
[2] = tested on: UACC-62; conditions: UACC-62 (Melanoma), 10 μM, 48 hours
[3] = tested on: SF-268; conditions: SF-268 (CNS Cancer), 10 μM, 48 hours
[4] = tested on: OVCAR-8; conditions: OVCAR-8 (Ovarian Cancer), 10 μM, 48 hours
[5] = tested on: MALME-3M; conditions: MALME-3M (Melanoma), 10 μM, 48 hours
[6] = tested on: PC-3; conditions: PC-3 (Prostate Cancer), 10 μM, 48 hours
[7] = tested on: NCI-H322M; conditions: NCI-H322M (Non-Small Cell Lung Cancer), 10 μM, 48 hours
[8] = tested on: UO-31; conditions: UO-31 (Renal Cancer), 10 μM, 48 hours
[9] = tested on: SNB-75; conditions: SNB-75 (CNS Cancer), 10 μM, 48 hours
[10] = tested on: RXF 393; conditions: RXF 393 (Renal Cancer), 10 μM, 48 hours
[11] = tested on: OVCAR-5; conditions: OVCAR-5 (Ovarian Cancer), 10 μM, 48 hours
[12] = tested on: T-47D; conditions: T-47D (Breast Cancer), 10 μM, 48 hours
[13] = tested on: LOX IMVI; conditions: LOX IMVI (Melanoma), 10 μM, 48 hours
[14] = tested on: NCI-H226; conditions: NCI-H226 (Non-Small Cell Lung Cancer), 10 μM, 48 hours
[15] = tested on: MDA-MB-468; conditions: MDA-MB-468 (Breast Cancer), 10 μM, 48 hours
[16] = tested on: M14; conditions: M14 (Melanoma), 10 μM, 48 hours
[17] = tested on: RPMI-8226; conditions: RPMI-8226 (Leukemia), 10 μM, 48 hours
[18] = tested on: COLO 205; conditions: COLO 205 (Colon Cancer), 10 μM, 48 hours
[19] = tested on: HT29; conditions: HT29 (Colon Cancer), 10 μM, 48 hours
[20] = tested on: KM12; conditions: KM12 (Colon Cancer), 10 μM, 48 hours
[21] = tested on: HCT-15; conditions: HCT-15 (Colon Cancer), 10 μM, 48 hours
[22] = tested on: OVCAR-3; conditions: OVCAR-3 (Ovarian Cancer), 10 μM, 48 hours
[23] = tested on: SF-539; conditions: SF-539 (CNS Cancer), 10 μM, 48 hours
[24] = tested on: MOLT-4; conditions: MOLT-4 (Leukemia), 10 μM, 48 hours
[25] = tested on: K-562; conditions: K-562 (Leukemia), 10 μM, 48 hours
[26] = tested on: HS 578T; conditions: HS 578T (Breast Cancer), 10 μM, 48 hours
[27] = tested on: NCI/ADR-RES; conditions: NCI/ADR-RES (Ovarian Cancer), 10 μM, 48 hours
[28] = tested on: SN12C; conditions: SN12C (Renal Cancer), 10 μM, 48 hours
[29] = tested on: HCC-2998; conditions: HCC-2998 (Colon Cancer), 10 μM, 48 hours
[30] = tested on: HCT-116; conditions: HCT-116 (Colon Cancer), 10 μM, 48 hours

Row | SMILES | growth percentage [1] | growth percentage [2] | growth percentage [3] | growth percentage [4] | growth percentage [5] | growth percentage [6] | growth percentage [7] | growth percentage [8] | growth percentage [9] | growth percentage [10] | growth percentage [11] | growth percentage [12] | growth percentage [13] | growth percentage [14] | growth percentage [15] | growth percentage [16] | growth percentage [17] | growth percentage [18] | growth percentage [19] | growth percentage [20] | also measured
1 | O=C1c2cc(Cl)ccc2-c2c(N3CCSCC3)nc3ccccc3c21 [SJ-9, 9-Chloro-6-thiomorpholino-11H-indeno[1,2-c]quinolin-11-one] | 99.15% | 94.90% | 96.13% | 96.11% | 101.05% | 87.77% | 92.29% | 65.33% | 72.13% | 106.09% | 94.37% | 83.86% | 100.04% | 94.22% | 97.71% | 101.69% | 95.20% | 96.30% | 95.52% | 97.97% | growth percentage [21]: 97.88%; growth percentage [22]: 96.58%; growth percentage [23]: 92.93%; growth percentage [24]: 93.29%; growth percentage [25]: 100.89%; growth percentage [26]: 87.68%; growth percentage [27]: 102.85%; growth percentage [28]: 93.10%; growth percentage [29]: 103.16%; growth percentage [30]: 89.08%
2 | O=C1c2cc(Cl)ccc2-c2c(N3CCN(C(=O)N4CCCCC4)CC3)nc3ccccc3c21 [SJ-23] | 104.44% | 93.92% | 107.51% | 104.73% | 102.62% | 93.07% | 94.59% | 82.74% | 80.84% | 107.22% | 102.33% | 95.99% | 103.19% | 96.06% | 106.42% | 101.18% | 104.31% | 98.52% | 108.65% | 101.58% | growth percentage [21]: 99.35%; growth percentage [22]: 103.33%; growth percentage [23]: 92.98%; growth percentage [24]: 104.77%; growth percentage [25]: 95.70%; growth percentage [26]: 102.06%; growth percentage [27]: 107.13%; growth percentage [28]: 101.12%; growth percentage [29]: 106.23%; growth percentage [30]: 101.67%

From US20150197492A1, “NOVEL INDENO[1,2-c]QUINOLIN-11-ONE DERIVATIVES, PREPARATION METHOD AND APPLICATION THEREOF” (National Defense Medical Center, priority 2014, published 2015)
